Measured values published in the supplement of paper PMC8960247.
Counter-ions that a name gives are not always drawn. ± gives the standard error.

Legend:
[1] = system: 621-103 (TSC2-rescued); assay: relative viability vs DMSO; higher = less cytotoxic; conditions: serum: 10% FBS, 72 h
[2] = system: 621-102 (TSC2-deficient); assay: as above; conditions: serum: 10% FBS, 72 h
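Note: immortalized renal angiomyolipoma cells stably carrying empty vector or TSC2, dosed in 384-well plates in DMEM, viability normalized to vehicle-treated wells within each plate.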

SMILES	relative viability ([1]; 0.0001 µM) [%]	relative viability ([1]; 0.001 µM) [%]	relative viability ([1]; 0.01 µM) [%]	relative viability ([1]; 0.1 µM) [%]	relative viability ([1]; 1 µM) [%]	relative viability ([1]; 10 µM) [%]	relative viability ([2]; 0.0001 µM) [%]	relative viability ([2]; 0.001 µM) [%]	relative viability ([2]; 0.01 µM) [%]	relative viability ([2]; 0.1 µM) [%]	relative viability ([2]; 1 µM) [%]	relative viability ([2]; 10 µM) [%]
Cc1ccc(Nc2nccc(N(C)c3ccc4c(C)n(C)nc4c3)n2)cc1S(N)(=O)=O [Pazopanib Hydrochloride]	92.7 ± 4.2	99.2 ± 3.9	102 ± 1.2	102.1 ± 1	100.8 ± 0.29	55.9 ± 1.2	78.9 ± 0.89	104 ± 5.5	110 ± 5.6	114.4 ± 0.52	104.7 ± 0.87	82.2 ± 1.6
CCOc1cc2ncc(C#N)c(Nc3ccc(F)c(Cl)c3)c2cc1NC(=O)/C=C/CN(C)C [Pelitinib]	102 ± 1.2	101 ± 1.5	100.5 ± 0.68	98.7 ± 3	65.38 ± 0.34	19.6 ± 1.3	104 ± 2.2	107.2 ± 0.9	121.9 ± 0.77	107 ± 4	80.44 ± 0.46	25.2 ± 3.6
CCC[C@H](N[C@@H](C)C(=O)N1[C@H](C(=O)O)C[C@@H]2CCCC[C@@H]21)C(=O)OCC [Perindopril Erbumine]	103.3 ± 0.76	108.5 ± 0.44	84.6 ± 1.6	111 ± 3.4	98.7 ± 11	79.52 ± 0.69	101 ± 0.48	106 ± 0.46	98.6 ± 1.7	104.3 ± 0.76	107.29 ± 0.055	73.7 ± 4.8
N=C(N)NC(=N)NCCc1ccccc1 [Phenformin HCl]	101 ± 5.7	102 ± 2.7	99.8 ± 1.6	104 ± 3.9	101 ± 5.7	101.9 ± 0.52	114.3 ± 0.035	113.5 ± 0.44	113 ± 1.9	112 ± 1.7	110 ± 8	105.3 ± 0.58
O=C1N=C(O)NC1(c1ccccc1)c1ccccc1 [Phenytoin sodium]	105 ± 2.1	105.8 ± 0.97	100 ± 2.4	101 ± 2.9	94.54 ± 0.49	101.8 ± 0.76	121 ± 4.2	90.6 ± 8.7	94.9 ± 4.7	86.6 ± 2.5	92 ± 6	100.3 ± 0.98
O=C1NC(=O)C(c2ccccc2)(c2ccccc2)N1 [Phenytoin]	105 ± 3.8	106 ± 6.7	100.3 ± 0.63	106 ± 4.5	101 ± 3	101 ± 7.8	109 ± 0.34	119 ± 4.6	101 ± 3	105 ± 1.9	97.4 ± 5	99.7 ± 1.3
COc1ccc(-c2nc3cc(C4=NNC(=O)CC4C)ccc3[nH]2)cc1 (stereo not drawn) [Pimobendan (Vetmedin)]	104 ± 2.3	101.7 ± 0.57	102.2 ± 0.15	100 ± 3.2	99.3 ± 3.6	84.13 ± 0.39	105.47 ± 0.018	106 ± 0.73	103 ± 2.5	108 ± 3.9	101 ± 2.5	87.99 ± 0.68
CN1C(C(=O)Nc2ccccn2)=C(O)c2ccccc2S1(=O)=O [Piroxicam]	110 ± 3	125 ± 2.3	126 ± 3.5	119.6 ± 0.1	112 ± 5	116.42 ± 0.082	98.4 ± 3.2	105 ± 8.5	111.3 ± 0.51	109 ± 4.4	103 ± 1.4	104 ± 9.8
CCCN[C@H]1CCc2nc(N)sc2C1 [Pramipexole dihydrochloride monohydrate]	98.1 ± 4.4	95.62 ± 0.72	101 ± 2.9	101 ± 1.8	105 ± 2.4	100.5 ± 0.52	91.3 ± 7.3	84.5 ± 4.2	101 ± 2.4	102 ± 1.4	91.4 ± 1.3	94.4 ± 1.9
CCc1nc(N)nc(N)c1-c1ccc(Cl)cc1 [Pyrimethamine]	105 ± 2	105.5 ± 0.94	104 ± 3.5	101 ± 2	104.3 ± 0.2	102 ± 4.4	99.7 ± 4.9	108.7 ± 0.4	95.6 ± 3.3	95.7 ± 2.5	100 ± 1.8	93.14 ± 0.75
O=c1c(O)c(-c2ccc(O)c(O)c2)oc2cc(O)cc(O)c12 [Quercetin (Sophoretin)]	87 ± 2	79.1 ± 1.4	88.6 ± 3.3	95.2 ± 6.2	89.4 ± 4.9	86.8 ± 1.1	64.8 ± 5.1	65.4 ± 7.3	68.4 ± 9.3	75 ± 10	78.2 ± 10	73.3 ± 5
COc1cc(Nc2ncc(F)c(Nc3ccc4c(n3)NC(=O)C(C)(C)O4)n2)cc(OC)c1OC [R406 (free base)]	99.45 ± 0.77	98.41 ± 0.3	101.7 ± 0.23	99.5 ± 1.3	98.1 ± 0.7	70.26 ± 0.23	114.2 ± 0.84	110 ± 2.3	105 ± 1.1	105 ± 1.2	105.4 ± 0.42	101 ± 2.1
COc1cc(Nc2ncc(F)c(Nc3ccc4c(n3)NC(=O)C(C)(C)O4)n2)cc(OC)c1OC [R406]	101 ± 1.9	100 ± 1.5	98.7 ± 1.4	99.27 ± 0.46	99.6 ± 1.3	89.7 ± 2.5	117 ± 2	110 ± 2.2	111 ± 1.2	109 ± 0.81	100.2 ± 0.76	117.2 ± 1.1
CC(=O)SCC(Cc1ccccc1)C(=O)NCC(=O)OCc1ccccc1 (stereo not drawn) [Racecadotril]	104 ± 4.4	95.5 ± 2	101 ± 4.2	101 ± 3.7	106 ± 1.2	99.3 ± 2.2	134 ± 1.7	120 ± 3.8	122 ± 1.8	107 ± 3.7	114 ± 5.8	113 ± 1.3
FC(F)(F)c1ccc(Nc2nc3ccc(Oc4ccnc(-c5ncc(C(F)(F)F)[nH]5)c4)cc3[nH]2)cc1 [Raf265 derivative]	110 ± 2.7	108 ± 6.7	94.7 ± 5	103 ± 5.7	101 ± 4.6	73.2 ± 7	113.2 ± 0.3	94.5 ± 1.8	106.8 ± 0.2	112 ± 4.1	102 ± 6.6	72.52 ± 0.56
Cc1nnc(C(=O)NC(C)(C)c2nc(C(=O)NCc3ccc(F)cc3)c(O)c(=O)n2C)o1 [Raltegravir]	99.5 ± 3	101 ± 1.5	100 ± 1.3	98.8 ± 1.3	101 ± 1.4	105 ± 2.1	106 ± 3.9	106 ± 3.1	108 ± 4.3	101.8 ± 0.33	110 ± 3.2	106 ± 3.2
Cc1nc(=O)c2cc(CN(C)c3ccc(C(=O)N[C@@H](CCC(=O)O)C(=O)O)s3)ccc2[nH]1 [Raltitrexed (Tomudex)]	99.1 ± 5.1	97.1 ± 4.5	115 ± 4.2	113 ± 1.8	102.7 ± 0.7	96.3 ± 3.2	86.7 ± 3.5	92.8 ± 1.6	107 ± 1.7	103.6 ± 0.8	92.5 ± 1.6	80.3 ± 1.2
CCOC(=O)[C@H](CCc1ccccc1)N[C@@H](C)C(=O)N1[C@H](C(=O)O)C[C@@H]2CCC[C@@H]21 [Ramipril]	104 ± 5.8	104 ± 2.4	92.3 ± 11	106 ± 0.85	102 ± 5	111 ± 1.6	107.5 ± 1	108 ± 2.2	102.3 ± 0.74	106 ± 4.6	108 ± 2.3	106.9 ± 0.7
CNC(=C[N+](=O)[O-])NCCSCc1ccc(CN(C)C)o1 [Ranitidine HCl]	107 ± 3.1	106 ± 3.6	103.5 ± 0.96	106 ± 1.3	103 ± 3	100.1 ± 0.51	103 ± 8.4	104 ± 0.46	101 ± 2.8	97.8 ± 2.7	105 ± 2.8	97.6 ± 0.51
